The text below walks through data of publication PMC9024338, “Bruceine H Mediates EGFR-TKI Drug Persistence in NSCLC by Notch3-Dependent β-Catenin Activating FOXO3a Signaling” (Frontiers in Oncology, 2022).

pIC50: −log10 of the molar value. Read-outs that look alike come from different tables or passages of the source.

The subject of data set [1] is A549 cells. Nature of the data set: Wound healing assay for migration. It is filed as cell-based, human. To be noted: 4 μM, 48 h. As to the method:
A549 cells (3 × 10^5/ml/well) were seeded into a six-well plate. After overnight culture, when the fusion rate reached 95%–100%, the sterile pipette tip was perpendicular to the plate plane, and a straight wound was drawn on the cell monolayer. Following treatment with BD or BH, the migration of the cells was examined under a microscope (×4, Nikon, Tokyo, Japan), and pictures were obtained at 0 and 48 h. The computation of the cell migration formula is as follows: relative migration area (%) = (0 h wound area – 48 h wound area)/0 h wound area × 100%.

Data set [2] concerns PC-9 cells. Nature of the data set: Apoptosis by flow cytometry (Annexin V-FITC/PI), PC-9. The note with it: PC-9, 48 h, various concentrations, relative to control. It is filed as cell-based, human. The protocol:
(§1) After being digested with trypsin without EDTA, the cells were washed gently with culture medium and twice with cold PBS. The pellet was resuspended in 400 μl of 1× binding buffer, the resuspended cells were transferred to flow tubes, then Annexin V-FITC (5 μl) and propidium iodide (10 μl) were added, and the mixture was incubated for 15 min at room temperature in the dark. The percentage of apoptotic cells was determined by flow cytometry (Backman, CA, USA) and FlowJo V10 software.
(Flow cytometry measures light scatter and fluorescence of single cells or particles in a stream.)

The subject of data set [3] is A549 xenografts. Nature of the data set: A549 xenografts in BALB/c nude mice. It is filed as in vivo. The protocol:
The total proteins of cells and tissues were extracted with RIPA cleavage buffer containing a protease inhibitor cocktail, phenylmethylsulfonyl fluoride (PMSF, Solarbio). The cell lysates (20 μg) were run on SDS-polyacrylamide gel (6%–10%) and transferred to the polyvinylidene fluoride membrane (PVDF, Millipore, MA, USA) by electrophoresis. The membrane was blocked with 5% skim milk in TBST for 2 h, incubated overnight with the corresponding primary antibody at 4°C, and then incubated with the corresponding secondary antibody at room temperature for 2 h. The reaction products were detected by chemiluminescence by ECL Western Blotting Detection System. Finally, quantitative analysis was carried out with ImageJ software.
The heart, liver, spleen, lung, kidney, and tumor tissues were embedded in paraffin, and the sections (4 µm) were stained with hematoxylin–eosin (H&E, Solarbio) and then examined and analyzed under a Leica DM6B microscope (Leica Microsystems, Wetzlar, Germany).
The tumor section was dewaxed and repaired with antigen, 3% H2O2 was added, and then the section was sealed with 10% goat serum at room temperature for 30 min. The first antibody against Ki-67 and Notch3 (CST) was incubated overnight at 4°C, and the second antibody was incubated at room temperature for 30 min. After DAB staining, the sections were counterstained with hematoxylin for 2 min and then observed and analyzed under a Leica microscope.
The animal procedures were approved by the Ethics Committee of the Experimental Animal Center of Jiangxi University of Chinese Medicine (Nanchang, China, SCXK 2016-0006) and conducted following the Guide for the Care and Use of Laboratory Animals. Four-week-old male BALB/c nude mice (weighing 16–17 g, SPF grade) were obtained from Shanghai Shrek Experimental Animal Co., Ltd. (Shanghai, China). The xenotransplantation model was established by subcutaneous injection of A549 or PC-9/GR cells in nude mice, which were collected with PBS and mixed with an equal volume of Matrigel at a final concentration of 1 × 10^7/ml. […] Measurements of tumor size and body weight were conducted every 2 days with a vernier caliper and an electronic balance. Nodule growth was quantified by using the following formula: tumor volume (mm^3) = (short-diameter)^2 × large-diameter × π/6.

Data set [4] deals with A549 cells. Nature of the data set: cells. It is filed as cell-based, human. To be noted: Homo sapiens. As to the method: (§2) The human NSCLC cell lines (A549, PC-9, and PC-9/GR) and other cell lines (16HBE and LO2) were purchased from the American Type Culture Collection (ATCC, Manassas, VA, USA). […] All cell lines were cultivated at 37°C under 5% CO2.
(§3) The Cell Counting Kit-8 assays (Beyotime, Shanghai, China) were performed to assess cell viability. […] Microplate readers (Infinite F500, Tecan, Mannedorf, Switzerland) were used to measure the absorbance (A) at 450 nm. All samples were assessed in triplicate.

Data set [5] has as its system PC-9 cells. Put plainly: cells. It is filed as cell-based, human. To be noted: Homo sapiens. As to the method:
as §2, §3

Data set [6] concerns 16HBE cells. Nature of the data set: Toxicity to normal human cell line 16HBE (Figure S1). It is filed as cell-based. As to the method: Figure S1. The toxicity of Bruceine H (BH) and Bruceine D (BD) to 16HBE (A) and LO2 (B) cells was evaluated.
In data set [7] the test system is PC-9/GR cells. Nature of the data set: CCK-8 cell viability assay, PC-9/GR (gefitinib-resistant). It is filed as cell-based. The note with it: Homo sapiens, 48 h, Figure 3B, unit only in axis title Concentration (μM). As to the method: as §2, §3
Data set [8] concerns PC-9/GR cells. Put plainly: Apoptosis by flow cytometry (Annexin V-FITC/PI), PC-9/GR. Type of data set: cell-based, human. To be noted: low-dose BH (4, 8 μM), gefitinib 25 μM, alone or combined. The protocol: as §1

As usually defined, the pIC50 is the negative decadic logarithm of the IC50, by convention in mol/L. What is called IC50 is the concentration that gives 50% inhibition. High values mean a need for much substance, low ones inhibition by little substance.

For `CC1=CC(=O)[C@@H](O)[C@]2(C)[C@H]3[C@@H](O)[C@H](O)[C@@]4(CO)OC[C@@]35[C@@H](C[C@@H]12)OC(=O)[C@H](O)[C@]54O` [BH, Bruceine H], the “migration of A549 cells (wound healing)” value in data set [1] is “impaired”. The late apoptotic rate result in data set [2] is on record as “increased”. For the same compound, in data set [3] (2.5 or 5 mg/kg intragastric, 16 days), the “growth of A549 xenografts” value was “significantly inhibited”. For the same compound, in data set [3] (A549 xenograft mice), the “organ indexes of heart, kidney, liver, lung, spleen” value is on record as “no significant changes”. Further, the body weight result in data set [3] (A549 xenograft mice, 2.5 and 5 mg/kg) is “without significant changes”. Besides, the “Notch3 expression in tumor xenografts” value in data set [3] (A549 xenografts, IHC, vs model group) is recorded as “decreased in a dose-dependent manner”. Also, the “number of Ki-67-positive cells in cancer tissues” value in data set [3] (A549 xenografts, IHC, vs vehicle) is on record as “decreased”. Also, the “Notch3, β-catenin, and Bcl-2 protein levels in tumor tissues” value in data set [3] (A549 xenografts, Western blot) is given as “decreased”. The “expression of FOXO3a in tumor tissues” value in data set [3] (A549 xenografts, Western blot) was “increased”. Also, the negative logarithm of the IC50 (pIC50) was 4.35 in data set [4] (A549, 24 h, Figure 2A, read-out: IC50 (24h)); 4.59 in data set [4] (A549, 48 h, read-out: IC50 (48 h)); 4.26 in data set [5] (PC-9, 24 h, Figure 2A, read-out: IC50 (24h)); 4.90 in data set [5] (PC-9, 48 h, read-out: IC50). In data set [6], the “toxicity to 16HBE cells” value is “no apparent toxicity”. Moreover, in data set [7], the IC50 turned out to be 21.7 µM. The “apoptosis of PC-9/GR cells” value in data set [8] is on record as “little effects”.
